Format in all cases: cell-based
In one test the target is T1, ER (Homo sapiens, UniProt P03372).
T1 construct: endogenous in cells; host or cells: T47d-kb-Luc (T47D stably transfected with a luciferase reporter gene only)
T1 sequence (P03372 1-595): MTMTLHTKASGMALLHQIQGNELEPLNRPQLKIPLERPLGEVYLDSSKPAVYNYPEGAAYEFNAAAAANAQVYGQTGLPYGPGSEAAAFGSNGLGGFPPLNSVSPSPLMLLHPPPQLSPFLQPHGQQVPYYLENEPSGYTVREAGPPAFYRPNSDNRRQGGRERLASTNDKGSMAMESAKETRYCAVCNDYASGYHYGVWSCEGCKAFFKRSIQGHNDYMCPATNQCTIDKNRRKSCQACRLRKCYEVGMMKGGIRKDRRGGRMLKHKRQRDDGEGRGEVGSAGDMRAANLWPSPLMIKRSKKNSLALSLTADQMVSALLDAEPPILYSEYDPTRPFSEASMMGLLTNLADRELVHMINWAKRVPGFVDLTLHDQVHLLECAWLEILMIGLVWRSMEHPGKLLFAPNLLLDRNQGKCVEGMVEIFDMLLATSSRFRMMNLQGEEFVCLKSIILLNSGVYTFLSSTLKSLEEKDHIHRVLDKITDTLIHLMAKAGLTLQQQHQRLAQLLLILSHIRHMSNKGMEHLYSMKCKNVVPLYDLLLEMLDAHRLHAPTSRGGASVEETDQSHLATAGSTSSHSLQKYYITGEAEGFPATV
The experiment in a line: ER antagonism (T47D ERE luciferase), T47d-kb-Luc cells. The following applies: read-out: IC50 (ER antagonistm). A digest of the protocol:
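Five sample concentrations, each in quadruplicate and repeated in at least three experiments, were tested for blocking of estradiol activity. Values were expressed relative to the estradiol control. The cell system was the T47d-kb-Luc stable breast cancer line.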

Test [1] has as its system MCF-7 breast cancer cells. Kind of test: MCF-7 proliferation / cell viability assay. The following applies: Homo sapiens, MCF7; MCF-7 proliferation with 0.1 nM 17-beta estradiol; read-out: IC50 (anti-proliferation). A digest of the protocol: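 Survival ratio, with vehicle (DMSO) as 100%, was derived from Coulter-counted viable cell numbers. Cells were grown in 5% FBS DMEM and dosed for 5 days across six concentrations between 10^−10 M and 10^−5 M.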

The target in another test is T2, ERα (Homo sapiens, UniProt P03372).
T2 construct: endogenous in cells; host or cells: MCF-7
T2 sequence (P03372 1-595): T1 sequence (P03372 1-595)
The experiment in a line: ER degradation in MCF-7 cells (Western blot). Conditions: for DC50: ER degradation, 24 hours; for Dmax: MCF7, Maximal ER degradation, read-out: Dmax. A digest of the protocol:
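ERα levels assessed by Western blot (50 μg lysate protein, infrared scanner) after 24-hour exposure of MCF-7 cells to varied compound concentrations. Values reported as DC50, the concentration halving ER expression, and Dmax, the maximal ER reduction achieved across tested concentrations.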
Background: Immunoblotting shows a protein as a band on a membrane.

The values below come from US20220348595A1, “COMPOUNDS AND METHODS FOR THE TARGETED DEGRADATION OF ESTROGEN RECEPTORS” (Endotarget Inc., priority 2021, published 2022).

Molecules are shown by their SMILES. Bounds are passed on as bounds.

Consider `CC/C(=C(/c1ccc(OCCN2CCN(CCCN3CCN(c4ccc5c(c4)C(=O)N(C4CCC(=O)NC4=O)C5=O)CC3)CC2)cc1)c1ccc(B(O)O)cc1)c1ccccc1` (stereo not shown) [Compound 37, (Z)-(4-(1-(4-(2-(4-(3-(4-(2-(2,6-dioxopiperidin-3-yl)-1,3-dioxoisoindolin-5-yl)piperazin-1-yl)propyl)piperazin-1-yl)ethoxy)phenyl)-2-phenylbut-1-en-1-yl)phenyl)boronic acid], for which, at ER, the IC50 was 10 to 50 nM. For the same molecule, the IC50 in test [1] lay in the range of 10 to 50 nM. Besides, on ERα, the DC50 (in general, the midpoint of the concentration-degradation curve) was less than 10 nM and the greatest degradation seen (Dmax) (as a rule, the largest share of the target that was removed) was greater than 90%.
For `CC/C(=C(/c1ccc(O)cc1)c1ccc(N2CCN(C(=O)N3CCN(c4ccc5c(c4)CN(C4CCC(=O)NC4=O)C5=O)CC3)CC2)cc1)c1ccccc1` (stereo not shown) [Compound 100], the IC50 on ER is less than 10 nM; in test [1] it was 10 to 50 nM. Moreover, the DC50 at ERα is less than 10 nM. The maximal degradation (Dmax) on ERα is greater than 90%.
Consider `CC/C(=C(\c1ccc(OCCN2CCC(CN3CCN(c4ccc5c(c4)C(=O)N(C4CCC(=O)NC4=O)C5=O)CC3)CC2)cc1)c1ccc(B(O)O)cc1)c1ccccc1` (stereo not shown) [Compound 20, (E)-(4-(1-(4-(2-(4-((4-(2-(2,6-dioxopiperidin-3-yl)-1,3-dioxoisoindolin-5-yl)piperazin-1-yl)methyl)piperidin-1-yl)ethoxy)phenyl)-2-phenylbut-1-en-1-yl)phenyl)boronic acid], for which the IC50 (at ER; in test [1]) was greater than 50 nM each time. The DC50 at ERα lay within 10 to 50 nM. The Dmax on ERα was greater than 75%.
As for `CC/C(=C(\c1ccc(B(O)O)cc1)c1ccc(N2CCN(C(=O)N3CCC(N4CCN(c5ccc6c(c5)CN(C5CCC(=O)NC5=O)C6=O)CC4)CC3)CC2)cc1)c1ccccc1` (stereo not shown) [Compound 110, (Z)-(4-(1-(4-(4-(4-(4-(2-(2,6-dioxopiperidin-3-yl)-1-oxoisoindolin-5-yl)piperazin-1-yl)piperidine-1-carbonyl)piperazin-1-yl)phenyl)-2-phenylbut-1-en-1-yl)phenyl)boronic acid], the IC50 on ER is less than 10 nM. The IC50 in test [1] fell in the range of 10 to 50 nM. Also, on ERα, the 50% degradation concentration (DC50) fell in the range of 10 to 50 nM and the Dmax was greater than 90%.
Regarding `CC/C(=C(\c1ccc(OCCN2CCN(CCC3CCN(c4ccc5c(c4)C(=O)N(C4CCC(=O)NC4=O)C5=O)CC3)CC2)cc1)c1ccc(B(O)O)cc1)c1ccccc1` (stereo not shown) [Compound 26, (E)-(4-(1-(4-(2-(4-(2-(1-(2-(2,6-dioxopiperidin-3-yl)-1,3-dioxoisoindolin-5-yl)piperidin-4-yl)ethyl)piperazin-1-yl)ethoxy)phenyl)-2-phenylbut-1-en-1-yl)phenyl)boronic acid], the IC50 (on ER; in test [1]) was 10 to 50 nM throughout. The half-maximal degradation concentration (DC50) on ERα is less than 10 nM. Moreover, on ERα, the Dmax is greater than 90%.
As to `CC/C(=C(/c1ccc(OCCN2CCN(C(=O)N3CCN(c4ccc5c(c4)CN([C@H]4CCC(=O)NC4=O)C5=O)CC3)CC2)cc1)c1ccc(B(O)O)cc1)c1ccccc1` [Compound 84], on ER, the IC50 is less than 10 nM. The IC50 in test [1] is less than 10 nM. Moreover, at ERα, the half-maximal degradation concentration (DC50) was less than 10 nM and the Dmax was greater than 90%.
Take `CC/C(=C(\c1ccc(OCCN2CCC(CN3CCN(c4ccc5c(c4)CN([C@@H]4CCC(=O)NC4=O)C5=O)CC3)CC2)cc1)c1ccc(B(O)O)cc1)c1ccccc1` [Compound 76]: at ER, the IC50 was less than 10 nM. Besides, the IC50 in test [1] was less than 10 nM. Besides, on ERα, the 50% degradation concentration (DC50) is less than 10 nM and the Dmax was greater than 90%.
For `CC/C(=C(\c1ccc(B(O)O)cc1)c1ccc(N2CCC(CCCN3CCN(c4ccc5c(c4)CN(C4CCC(=O)NC4=O)C5=O)CC3)CC2)cc1)c1ccccc1` (stereo not shown) [Compound 53, (Z)-(4-(1-(4-(4-(3-(4-(2-(2,6-dioxopiperidin-3-yl)-1-oxoisoindolin-5-yl)piperazin-1-yl)propyl)piperidin-1-yl)phenyl)-2-phenylbut-1-en-1-yl)phenyl)boronic acid], the IC50 was less than 10 nM on ER and 10 to 50 nM in test [1]. This molecule showed a DC50 on ERα of less than 10 nM. Moreover, on ERα, the greatest degradation seen (Dmax) was greater than 90%.
On to `CC/C(=C(\c1ccc(OCCN2CCC(CCN3CCN(c4ccc5c(c4)CN(C4CCC(=O)NC4=O)C5=O)CC3)CC2)cc1)c1ccc(B(O)O)cc1)c1ccccc1` (stereo not drawn) [Compound 30, (E)-(4-(1-(4-(2-(4-(2-(4-(2-(2,6-dioxopiperidin-3-yl)-1-oxoisoindolin-5-yl)piperazin-1-yl)ethyl)piperidin-1-yl)ethoxy)phenyl)-2-phenylbut-1-en-l-yl)phenyl)boronic acid], for which the IC50 (on ER; in test [1]) was 10 to 50 nM in each case. This molecule also showed a half-maximal degradation concentration (DC50) at ERα of less than 10 nM. Besides, the Dmax on ERα was greater than 90%.
For `CC/C(=C(/c1ccc(B(O)O)cc1)c1ccc(N2CCN(CCN3CCN(c4ccc5c(c4)C(=O)N(C4CCC(=O)NC4=O)C5=O)CC3)CC2)cc1)c1ccccc1` (stereo not shown) [Compound 60, (E)-(4-(1-(4-(4-(2-(4-(2-(2,6-dioxopiperidin-3-yl)-1,3-dioxoisoindolin-5-yl)piperazin-1-yl)ethyl)piperazin-1-yl)phenyl)-2-phenylbut-1-en-1-yl)phenyl)boronic acid], the IC50 (at ER; in test [1]) was 10 to 50 nM throughout. This molecule also registered a DC50 on ERα of 10 to 50 nM. Also, the greatest degradation seen (Dmax) at ERα is greater than 90%.
In the case of `CC/C(=C(/c1ccc(B(O)O)cc1)c1ccc(N2CCN(C(=O)N3CCN(c4ccc5c(c4)CN([C@@H]4CCC(=O)NC4=O)C5=O)CC3)CC2)cc1)c1ccccc1` [Compound 108, (R,E)-(4-(1-(4-(4-(4-(2-(2,6-dioxopiperidin-3-yl)-1-oxoisoindolin-5-yl)piperazine-1-carbonyl)piperazin-1-yl)phenyl)-2-phenylbut-1-en-1-yl)phenyl)boronic acid], the IC50 (at ER; in test [1]) was less than 10 nM each time. This molecule gave a DC50 at ERα of less than 10 nM. In addition, the Dmax at ERα is greater than 90%.
As to `CC/C(=C(/c1ccc(OCCN2CCN(C(=O)N3CCC(N4CCN(c5ccc6c(c5)CN(C5CCC(=O)NC5=O)C6=O)CC4)CC3)CC2)cc1)c1ccc(B(O)O)cc1)c1ccccc1` (stereo not shown) [Compound 95], the IC50 on ER was less than 10 nM. For the same molecule, in test [1], the IC50 was less than 10 nM. Also, at ERα, the half-maximal degradation concentration (DC50) was 10 to 50 nM and the Dmax was greater than 90%.
As to `CC/C(=C(/c1ccc(OCCN2CCN(CC3CCN(c4ccc5c(c4)CN(C4CCC(=O)NC4=O)C5=O)CC3)CC2)cc1)c1ccc(B(O)O)cc1)c1ccccc1` (stereo not shown) [Compound 21, (Z)-(4-(1-(4-(2-(4-((1-(2-(2,6-dioxopiperidin-3-yl)-1-oxoisoindolin-5-yl)piperidin-4-yl)methyl)piperazin-1-yl)ethoxy)phenyl)-2-phenylbut-1-en-1-yl)phenyl)boronic acid], the IC50 (on ER; in test [1]) was less than 10 nM each time. Moreover, on ERα, the DC50 is less than 10 nM. For the same molecule, the Dmax at ERα was greater than 90%.
Turning to `CC/C(=C(/c1ccc(B(O)O)cc1)c1ccc(N2CCN(CCCC3CCN(c4ccc5c(c4)C(=O)N(C4CCC(=O)NC4=O)C5=O)CC3)CC2)cc1)c1ccccc1` (stereo not shown) [Compound 56, (E)-(4-(1-(4-(4-(3-(1-(2-(2,6-dioxopiperidin-3-yl)-1,3-dioxoisoindolin-5-yl)piperidin-4-yl)propyl)piperazin-1-yl)phenyl)-2-phenlbut-1-en-1-yl)phenyl)boronic acid], the IC50 at ER lay in the range of 10 to 50 nM. Further, the IC50 in test [1] lay within 10 to 50 nM. For the same molecule, on ERα, the DC50 is less than 10 nM and the Dmax was greater than 75%.
With `CC/C(=C(\c1ccc(O)cc1)c1ccc(OCCN2CCN(C(=O)N3CCC(N4CCN(c5ccc6c(c5)CN(C5CCC(=O)NC5=O)C6=O)CC4)CC3)CC2)cc1)c1ccccc1` (stereo not shown) [Compound 93, (Z)-3-(5-(4-(1-(4-(2-(4-(1-(4-hydroxyphenyl)-2-phenylbut-1-en-1-yl)phenoxy)ethyl)piperazine-1-carbonyl)piperidin-4-yl)piperazin-1-yl)-1-oxoisoindolin-2-yl)piperidine-2,6-dione], the IC50 at ER is less than 10 nM. Also, in test [1], the IC50 is less than 10 nM. Further, on ERα, the DC50 is 10 to 50 nM and the greatest degradation seen (Dmax) is greater than 90%.
As for `CC/C(=C(\c1ccc(B(O)O)cc1)c1ccc(N2CCN(CCC3CCN(c4ccc5c(c4)CN(C4CCC(=O)NC4=O)C5=O)CC3)CC2)cc1)c1ccccc1` (stereo not shown) [Compound 67, (Z)-(4-(1-(4-(4-(2-(1-(2-(2,6-dioxopiperidin-3-yl)-1-oxoisoindolin-5-yl)piperidin-4-yl)ethyl)piperazin-1-yl)phenyl)-2-phenylbut-1-en-1-yl)phenyl)boronic acid], on ER, the IC50 is less than 10 nM. Further, the IC50 in test [1] was less than 10 nM. Further, on ERα, the DC50 was less than 10 nM and the Dmax was greater than 90%.
